Laboratory results as given in paper PMC8343220, “The selectivity of α‐adrenoceptor agonists for the human α1A, α1B, and α1D‐adrenoceptors” (Pharmacology Research & Perspectives, 2021).

Columns and labels:
human α1A‐adrenoceptor [1] = target: T1, human α1A‐adrenoceptor (Homo sapiens, UniProt P35348); test: ^3H‐prazosin whole‐cell radioligand binding, CHO‐α1A cells; conditions: for Kd: CHO‐α1A cells, given as log KD (negative), mean ± SEM; for Affinity selectivity ratio α1A vs α1B: higher affinity for α1A than α1B; for Affinity selectivity ratio α1A vs α1D: higher affinity for α1A than α1D
T1 construct: expressed in transfected cells; host or cells: CHO-K1
T1 sequence (P35348 1-466): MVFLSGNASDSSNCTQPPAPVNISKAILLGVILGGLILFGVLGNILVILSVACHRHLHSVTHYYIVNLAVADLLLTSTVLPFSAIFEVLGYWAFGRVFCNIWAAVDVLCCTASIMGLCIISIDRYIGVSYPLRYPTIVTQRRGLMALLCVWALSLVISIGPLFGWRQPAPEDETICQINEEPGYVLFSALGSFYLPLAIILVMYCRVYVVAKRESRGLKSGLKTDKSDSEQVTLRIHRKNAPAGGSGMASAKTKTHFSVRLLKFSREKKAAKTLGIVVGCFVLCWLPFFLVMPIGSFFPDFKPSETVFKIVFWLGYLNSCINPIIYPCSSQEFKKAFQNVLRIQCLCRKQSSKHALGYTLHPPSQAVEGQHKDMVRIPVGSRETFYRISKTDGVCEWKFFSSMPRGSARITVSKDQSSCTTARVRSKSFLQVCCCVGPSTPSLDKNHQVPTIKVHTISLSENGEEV

human α1B‐adrenoceptor [2] = target: T2, human α1B‐adrenoceptor (Homo sapiens, UniProt P35368); test: ^3H‐prazosin whole‐cell radioligand binding, CHO‐α1B cells; conditions: for Kd: CHO‐α1B cells
T2 construct: expressed in transfected cells; host or cells: CHO-K1
T2 sequence (P35368 1-520): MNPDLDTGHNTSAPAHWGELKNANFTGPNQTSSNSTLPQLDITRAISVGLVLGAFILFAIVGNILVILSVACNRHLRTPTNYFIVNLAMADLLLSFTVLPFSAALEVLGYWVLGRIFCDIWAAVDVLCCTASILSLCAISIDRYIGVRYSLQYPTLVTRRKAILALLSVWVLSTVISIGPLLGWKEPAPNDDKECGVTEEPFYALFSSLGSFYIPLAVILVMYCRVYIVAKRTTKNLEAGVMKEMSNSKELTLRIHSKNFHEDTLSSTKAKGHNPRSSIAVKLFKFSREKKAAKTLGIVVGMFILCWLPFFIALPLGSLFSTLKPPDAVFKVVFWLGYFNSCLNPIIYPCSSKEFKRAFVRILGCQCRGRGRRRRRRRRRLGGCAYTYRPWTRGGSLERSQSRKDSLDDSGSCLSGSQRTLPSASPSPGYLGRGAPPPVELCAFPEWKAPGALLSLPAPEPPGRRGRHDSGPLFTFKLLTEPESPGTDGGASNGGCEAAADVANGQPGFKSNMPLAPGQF

[3] = target: T3, human α1D‐adrenoceptor (full length) (Homo sapiens, UniProt P25100); test: ^3H‐prazosin whole‐cell radioligand binding, CHO‐α1D cells; conditions: for Kd: CHO‐α1D cells
T3 construct: human α1D‐adrenoceptor (full length) were used; expressed in transfected cells; host or cells: CHO-K1
T3 sequence (P25100 1-572): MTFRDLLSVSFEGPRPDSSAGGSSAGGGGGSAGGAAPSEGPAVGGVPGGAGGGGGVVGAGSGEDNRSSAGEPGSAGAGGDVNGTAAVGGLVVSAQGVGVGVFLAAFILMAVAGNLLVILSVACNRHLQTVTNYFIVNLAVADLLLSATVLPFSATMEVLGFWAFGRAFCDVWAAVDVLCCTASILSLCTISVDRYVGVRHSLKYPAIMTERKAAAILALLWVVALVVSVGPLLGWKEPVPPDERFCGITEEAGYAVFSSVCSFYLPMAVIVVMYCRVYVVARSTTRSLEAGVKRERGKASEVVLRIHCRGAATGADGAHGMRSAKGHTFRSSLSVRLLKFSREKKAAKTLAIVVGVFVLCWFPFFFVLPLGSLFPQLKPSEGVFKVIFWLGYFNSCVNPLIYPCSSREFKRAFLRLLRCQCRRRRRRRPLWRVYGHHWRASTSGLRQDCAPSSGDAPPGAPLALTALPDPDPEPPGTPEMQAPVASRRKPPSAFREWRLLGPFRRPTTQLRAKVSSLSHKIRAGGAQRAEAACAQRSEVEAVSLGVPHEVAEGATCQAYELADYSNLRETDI

human α1B‐adrenoceptor [4] = target: T2, human α1B‐adrenoceptor; test: Intracellular free calcium mobilization, CHO‐α1B cells; assay type: cell-based
human α1A‐adrenoceptor [5] = target: T1, human α1A‐adrenoceptor; test: ERK1/2‐phosphorylation (Surefire Alphascreen), CHO‐α1A cells; assay type: cell-based; conditions: CHO‐α1A cells, ^a bi‐phasic: initial stimulatory part; for EC50: 2–4 min, ^b also active in parent CHO cells, read-out: ERK1/2‐phosphorylation Log EC50 (converted); for ERK1/2‐phosphorylation % PDBu: % of 10 µM PDBu
[6] = target: T3, human α1D‐adrenoceptor (full length); test: ERK1/2‐phosphorylation (Surefire Alphascreen), CHO‐α1D cells; assay type: cell-based; conditions: CHO‐α1D cells; for EC50: log values given negative, read-out: ERK1/2‐phosphorylation Log EC50 (converted); for ERK1/2‐phosphorylation % PDBu: maximal response as % of PDBu
[7] = tested on: parental CHO cell line without any transfected receptors; test: ERK1/2‐phosphorylation, parent CHO cells without transfected receptors; assay type: cell-based, Chinese hamster
human α1A‐adrenoceptor [8] = target: T1, human α1A‐adrenoceptor; test: ^3H‐cAMP accumulation, CHO‐α1A cells; assay type: cell-based; conditions: CHO‐α1A cells; for EC50: 5 h, read-out: cAMP accumulation Log EC50 (converted); for cAMP accumulation % forskolin: % of 10 µM forskolin response
human α1B‐adrenoceptor [9] = target: T2, human α1B‐adrenoceptor; test: ^3H‐cAMP accumulation, CHO‐α1B cells; assay type: cell-based; conditions: CHO‐α1B cells; for cAMP accumulation % forskolin: % forskolin maximum response
[10] = target: T3, human α1D‐adrenoceptor (full length); test: ^3H‐cAMP accumulation, CHO‐α1D cells; assay type: cell-based; conditions: cAMP accumulation without forskolin
human α1A‐adrenoceptor [11] = target: T1, human α1A‐adrenoceptor; test: ^3H‐cAMP accumulation in the presence of 10 μM forskolin, CHO‐α1A cells; assay type: cell-based; conditions: CHO‐α1A cells; for EC50: 10 μM forskolin, read-out: cAMP accumulation (in presence of forskolin) Log EC50 (converted); for cAMP accumulation (in presence of forskolin) Fold increase: fold increase of the forskolin response
human α1B‐adrenoceptor [12] = target: T2, human α1B‐adrenoceptor; test: ^3H‐cAMP accumulation in the presence of 10 μM forskolin, CHO‐α1B cells; assay type: cell-based; conditions: CHO‐α1B cells; for cAMP accumulation (in presence of forskolin) Fold increase: fold increase of the forskolin response; for EC50: in presence of forskolin, read-out: cAMP accumulation (in presence of forskolin) Log EC50 (converted)
[13] = tested on: parental CHO cell line without any transfected receptors; test: Forskolin‐stimulated cAMP accumulation, parent CHO cells without transfected receptors; assay type: cell-based, Chinese hamster; conditions: CHO cells without transfected receptors
[14] = given as log KD (negative), mean ± SEM, 'early plateau' = specific binding not fully inhibited

Compound | Kd (human α1A‐adrenoceptor [1]) [µM] | Affinity selectivity ratio α1A vs α1B (human α1A‐adrenoceptor [1]) [fold] | Affinity selectivity ratio α1A vs α1D (human α1A‐adrenoceptor [1]) [fold] | Kd [3, 14] [µM] | EC50 (human α1A‐adrenoceptor [5]) [µM] | ERK1/2‐phosphorylation % PDBu (human α1A‐adrenoceptor [5]) [%] | EC50 [6] [µM] | ERK1/2‐phosphorylation % PDBu [6] [%] | EC50 (human α1A‐adrenoceptor [8]) [µM] | cAMP accumulation % forskolin (human α1A‐adrenoceptor [8]) [%] | cAMP accumulation % forskolin (human α1B‐adrenoceptor [9]) | cAMP Log EC50 [10] | EC50 (human α1A‐adrenoceptor [11]) [µM] | cAMP accumulation (in presence of forskolin) Fold increase (human α1A‐adrenoceptor [11]) [fold] | cAMP accumulation (in presence of forskolin) Fold increase (human α1B‐adrenoceptor [12]) [fold] | EC50 (human α1B‐adrenoceptor [12]) [µM] | further results
CC(CCc1ccc(O)cc1)NCCc1ccc(O)c(O)c1 (stereo not shown) [Dobutamine] | 0.457 | 7.9 | 9.5 | 4.37 | 0.0437 | 85.5 ± 4.3 | 0.891 | 26.2 ± 7.5 | 0.871 | 11.9 ± 1.6 | No response | No response | 0.661 | 1.98 ± 0.14 | 1.24 ± 0.04 | 2 | Kd (human α1B‐adrenoceptor [2]; Log KD α1B, ^3H‐prazosin whole cell binding, given as log KD (negative), mean ± SEM): 3.63 µM; Kd (human α1B‐adrenoceptor [2]; Log KD, ^3H‐prazosin binding, whole‐cell binding (from Table 1), given as log KD (negative numbers)): 3.63 µM; Affinity selectivity ratio α1B vs α1D (human α1B‐adrenoceptor [2]; left sub‐column: higher affinity for α1B than α1D): 1.2 fold; Kd ([3]; 3H‐prazosin binding Log KD, whole‐cell binding (from Table 1), log values given negative): 4.37 µM; Agonist (calcium) response in CHO‐α1B cells (human α1B‐adrenoceptor [4]): did not stimulate any measurable; Intracellular calcium release % Ionomycin at 100 µM (human α1B‐adrenoceptor [4]; CHO‐α1B cells, response at 100 µM ligand (no EC50 given), % of ionomycin response): 3.0 ± 1.1%; ERK1/2-phosphorylation % PDBu at 10μM ([7]; CHO cells without transfected receptors, response at 10μM only, EC50 not obtainable, % of PDBu (10μM)): 16.4 ± 5.9%; cAMP accumulation Log EC50 (human α1B‐adrenoceptor [9]): No response; cAMP accumulation (in presence of forskolin) Log EC50 ([13]; in presence of forskolin): No response
c1ccc(C2CC2)c(OCC2=NCCN2)c1 [Cirazoline] | 0.676 | 11.7 | 4.4 | 2.95 | 0.000955 | 80.8 ± 3.6 | 3.8 | 36.5 ± 3.2 | 0.123 | 108.9 ± 6.5 | 11.4 ± 2.4% | No response | 0.0107 | 2.38 ± 0.15 | 2.09 ± 0.13 | 0.0398 | Kd (human α1B‐adrenoceptor [2]; given as log KD (negative), mean ± SEM): 7.94 µM; Affinity selectivity ratio α1B vs α1D ([3]; higher affinity for α1D than α1B): 2.7 fold; EC50 (human α1B‐adrenoceptor [4]; CHO‐α1B cells, given as log EC50 (negative numbers), read-out: Intracellular calcium release Log EC50 (converted)): 0.00891 µM; Log efficacy ratio KD /EC50 (human α1B‐adrenoceptor [4]; CHO‐α1B cells, intrinsic efficacy ratio, KD from binding / EC50 calcium, log): 2.95; Intracellular calcium release % ionomycin (human α1B‐adrenoceptor [4]; CHO‐α1B cells, maximal response as % of 10 µM ionomycin response): 53.3 ± 1.5%; Emax at 100 µM ([7]; Cricetulus griseus, CHO, read-out: ERK1/2-phosphorylation % PDBu at 100μM): 33.4 ± 7.6%; EC50 (human α1B‐adrenoceptor [9]; read-out: cAMP accumulation Log EC50 (converted)): 0.12 µM; cAMP accumulation (in presence of forskolin) % forskolin-stim cAMP at 100μM ([13]; response at 100μM only, EC50 not obtainable, % of forskolin-stimulated cAMP): 82.4 ± 2.8%
